Measurements reported in paper PMC12067444, “Synthesis and Pharmacological Characterization of Novel Peripheral Cannabinoid-1 Receptor Blockers Based on a Tricyclic Scaffold” (Journal of Medicinal Chemistry, 2025).

How the values were obtained:
TA100 = assay: Mini-Ames assay, strain TA100; format: cell-based; settings: for F value: fold vs DMSO; for Growth of lawn: replicates 1-3
Procedure: Mini Am es assay. To conduct the assay, top agar was melted with a microwave and maintained at a temper atur e ≥47 °C in a water bath. T he assay was performed using a heat block set to 45 °C ± 2 °C. 12 × 75 mm test tubes were prepared in duplicates. For each concentration, the following components were added sequentially to a test tube:
[…] The mixture was vortexed and then dispensed into w ells using a dispo sable pipette. The plates wer e then incubated at 37±2 °C for approximately 48 to 72 hours.
BBbbbb BBBBbbbb BBBB = AAAAbbbbbbAAbb nnnnnnbbbbbb bboo bbbbAAbbbbbbbbnnbbbb oobbbb bbbb eeee dd bbbbbb AAbbbbnn gg AAAAbbbbbbAAbb nnnnnnbbbbbb bbBB bbbbAAbbbbbbbbnnbbbb BBbbbb DDDDDDDD nn bbAAbbbbaaAAbb AAbbbbnnaa The mutagenicity of the compound was determined by evaluating the number of revertant colonies in strains TA98 and TA100. A compound was […]
related and if the fold increase in revertants (F) was equal to or greater than 2 for […]
background lawn growth on the agar plates. A scoring system ranging from 0 to 4 […]
complete cytotoxicity, while scores 1, 2, and 3 represented 25%, 50%, and 75% growth, respectively. A score of 4 signified full '100%' growth. The background […]
background lawn and required magnification for visualization. […]

C57BL/6J mice [1] = assay: Assessment of centrally mediated hyperactivity (locomotor activity); format: in vivo, mouse
Procedure: (§1) The activity profiles of the mice were evaluated using the Promethion High-Definition Behavioral Phenotyping System (Sable Instruments, Inc., Las Vegas, NV, USA). MetaScreen software version 2.2.18.0 was employed for data acquisition and instrument control, while ExpeData version 1.8.4 was used for processing raw data. An analysis script detailing all aspects of the data transformation was utilized. Mice with unrestricted access to food and water were subjected to a standard 12 h light/12 h dark cycle, comprising a 16-h acclimation period followed by 24 h of sampling. Ambulatory activity and position were concurrently quantified by the number of disruptions of the infrared beams in three dimensions (XYZ) with a beam spacing of 0.25 cm.
This experiment aimed to evaluate the capacity of BNS808 and rimonabant (used as a positive control) to elicit centrally mediated hyperactivity in mice (a known feature of a brain penetrant compound). For this purpose, male wild-type C57BL/6J mice received a single dose of either the vehicle, rimonabant (10 mg/kg, PO), or BNS808 (1 or 10 mg/kg, PO). The locomotor activity was quantified by measuring the disruptions of infrared beams in two dimensions (XY) for 1 h. Each testing session involved evaluating two groups at a time.

C57BL/6J mice [2] = assay: CB1R agonist (HU210)-induced hypomotility; format: in vivo, mouse; settings: 1 or 10 mg/kg PO; HU210 30 μg/kg IP; 4 h
Procedure: as §1
The objective of this experiment was to evaluate the capability of BNS808 and rimonabant (utilized as a positive control) in inhibiting hypomotility induced by a CB1R agonist (HU210). Male wild-type C57BL/6J mice were administered a single dose of either the vehicle, rimonabant (10 mg/kg, PO), or BNS808 (1 or 10 mg/kg, PO). Thirty minutes following this administration, the mice received a single dose of HU210 (30 μg/kg, IP). The locomotor activity was quantified by assessing the disruptions of infrared beams in two dimensions for 4 h.

[3] = system: diet-induced obese C57Bl/6J mice; assay: Chronic treatment of diet-induced obese (DIO) mice; format: in vivo, mouse; settings: vs vehicle
Procedure: To induce diet-induced obesity, the mice were fed a high-fat diet (HFD) containing 60% of calories from fat, 20% from protein, and 20% carbohydrates (Research Diet, D12492) for 16 weeks. HFD-fed obese mice were administered either vehicle or BNS808 (in SEDDs) orally at 1 mg/kg (dosing volume of 1 mL/kg) for 24 days. Daily monitoring of body weight was conducted throughout the experimental period. Total body fat and lean masses were assessed using the EchoMRI-100H (Echo Medical Systems LLC, Houston, TX, USA). At the end of week 20, mice were euthanized via cervical dislocation under anesthesia. Various tissues, including the kidneys, brain, liver, fat pads, and muscles, were harvested and snap-frozen or fixed in buffered 4% formalin. Trunk blood samples were collected for biochemical parameters analysis. […]

O=S(=O)(NC1CCCOc2c1nn(-c1ccccc1Cl)c2-c1ccc(Cl)cc1)c1ccc(Cl)cc1 (stereo not drawn) [BNS808, 4-chloro-N-[2-(2-chlorophenyl)-3-(4-chlorophenyl)-5,6,7,8-tetrahydrooxepino[3,2-c]pyrazol-8-yl]benzenesulfonamide]
Number of revertants MEAN (TA100; TA100, +S9, 31.25 μg/well): 40.67
solubility (TA100; TA100, +S9, 31.25 μg/well): P0
F value (TA100; TA100, +S9, 31.25 μg/well): 1.03
Growth of lawn (TA100; TA100, +S9, 31.25 μg/well): 4 (A score of 4 signified full '100%' growth)
Number of revertants MEAN (TA100; TA100, +S9, 62.5 μg/well): 34.67
solubility (TA100; TA100, +S9, 62.5 μg/well): P0
F value (TA100; TA100, +S9, 62.5 μg/well): 0.87
Growth of lawn (TA100; TA100, +S9, 62.5 μg/well): 4 (A score of 4 signified full '100%' growth)
Number of revertants MEAN (TA100; TA100, +S9, 125 μg/well): 30.00
solubility (TA100; TA100, +S9, 125 μg/well): P0
F value (TA100; TA100, +S9, 125 μg/well): 0.76
Growth of lawn (TA100; TA100, +S9, 125 μg/well): 4 (A score of 4 signified full '100%' growth)
Number of revertants MEAN (TA100; TA100, +S9, 250 μg/well): 29.33
solubility (TA100; TA100, +S9, 250 μg/well): P1 (0~20% growth of crystals)
F value (TA100; TA100, +S9, 250 μg/well): 0.74
Growth of lawn (TA100; TA100, +S9, 250 μg/well): 4 (A score of 4 signified full '100%' growth)
Number of revertants MEAN (TA100; TA100, +S9, 500 μg/well): 19.33
solubility (TA100; TA100, +S9, 500 μg/well): P2 (20%~60% growth of crystals)
F value (TA100; TA100, +S9, 500 μg/well): 0.49
Growth of lawn (TA100; TA100, +S9, 500 μg/well): 4 (A score of 4 signified full '100%' growth)
Number of revertants MEAN (TA100; TA100, +S9, 1000 μg/well): 16.67
solubility (TA100; TA100, +S9, 1000 μg/well): P3 (60%~100% growth of crystals)
F value (TA100; TA100, +S9, 1000 μg/well): 0.42
Growth of lawn (TA100; TA100, +S9, 1000 μg/well): 4 (A score of 4 signified full '100%' growth)
Number of revertants MEAN (TA100; TA100, -S9, 31.25 μg/well): 29.00
solubility (TA100; TA100, -S9, 31.25 μg/well): P0
F value (TA100; TA100, -S9, 31.25 μg/well): 0.97
Growth of lawn (TA100; TA100, -S9, 31.25 μg/well): 4 (A score of 4 signified full '100%' growth)
Number of revertants MEAN (TA100; TA100, -S9, 62.5 μg/well): 23.67
solubility (TA100; TA100, -S9, 62.5 μg/well): P0
F value (TA100; TA100, -S9, 62.5 μg/well): 0.79
Growth of lawn (TA100; TA100, -S9, 62.5 μg/well): 4 (A score of 4 signified full '100%' growth)
Number of revertants MEAN (TA100; TA100, -S9, 125 μg/well): 22.67
solubility (TA100; TA100, -S9, 125 μg/well): P0
F value (TA100; TA100, -S9, 125 μg/well): 0.76
Growth of lawn (TA100; TA100, -S9, 125 μg/well): 4 (A score of 4 signified full '100%' growth)
Number of revertants MEAN (TA100; TA100, -S9, 250 μg/well): 23.00
solubility (TA100; TA100, -S9, 250 μg/well): P1 (0~20% growth of crystals)
F value (TA100; TA100, -S9, 250 μg/well): 0.77
Growth of lawn (TA100; TA100, -S9, 250 μg/well): 4 (A score of 4 signified full '100%' growth)
Number of revertants MEAN (TA100; TA100, -S9, 500 μg/well): 18.67
solubility (TA100; TA100, -S9, 500 μg/well): P2 (20%~60% growth of crystals)
F value (TA100; TA100, -S9, 500 μg/well): 0.62
Growth of lawn (TA100; TA100, -S9, 500 μg/well): 4 (A score of 4 signified full '100%' growth)
CNS-mediated side effects (C57BL/6J mice [1]; 1 mg/kg and 10 mg/kg PO, mice): No CNS-mediated side effects were observed
locomotor activity (centrally mediated hyperactivity) (C57BL/6J mice [1]; single dose 1 or 10 mg/kg PO, male C57Bl/6J mice, 1 h): no significant changes in locomotor activity
antagonism of HU-210-induced hypoactivity (C57BL/6J mice [2]): unable to antagonize the hypoactivity mediated by HU-210
body weight ([3]; 1 mg/kg/day PO (in SEDDs) for 24 days): reduced body weight
fasting blood glucose ([3]; 1 mg/kg/day PO for 24 days): reduced the glucose levels in fasting conditions
glucose homeostasis (ipGTT) ([3]; 1 mg/kg/day PO for 24 days): trend toward substantial effects
lean body mass (EchoMRI) ([3]; 1 mg/kg/day PO for 24 days): significant increase in lean body mass
total body fat (EchoMRI) ([3]; 1 mg/kg/day PO for 24 days): reduction in total body fat
HDL levels ([3]; 1 mg/kg/day for 24 days): without affecting HDL levels
HDL/LDL ratio ([3]; 1 mg/kg/day for 24 days): increased HDL/LDL ratio
LDL levels ([3]; 1 mg/kg/day for 24 days): reduced LDL levels
hepatic steatosis and hepatocellular damage (histology) ([3]; 1 mg/kg/day for 24 days): reversing hepatic steatosis and hepatocellular damage
liver enzymes (ALT, AST, ALP) ([3]; 1 mg/kg/day for 24 days): significant reduction
liver triglyceride content ([3]; 1 mg/kg/day for 24 days): significant reduction in liver triglyceride content
total cholesterol ([3]; 1 mg/kg/day for 24 days): reduced total cholesterol
triglycerides levels (serum) ([3]; 1 mg/kg/day for 24 days): reduced
